Values quoted from earlier work as cited in article PMC11767451, “Novel Approaches to Monitor Pharmacokinetics and Metabolism of Gemcitabine-Ibandronate Conjugate in Mice and Dogs” (Molecules, 2025).

Tested on: bone-associated cancer cells
Parameters: method as in PMID 30413669
Settings: cited from earlier work

CC(O)(P(=O)(O)O)P(=O)(O)OP(=O)(O)OC[C@H]1O[C@@H](n2ccc(N)nc2=O)[C@@H](O)[C@@H]1O (stereo partly drawn) [MBC-11]
bone localized effects compared to free cytarabine (clinical trials): 2–20 fold | metabolic activity of bone-associated cancer cells (in humans): significant reductions | tolerability (in humans): well tolerated
